{"source": "patent US5084274A", "about": "“Inhibition of arterial thrombotic occlusion or thromboembolism” (Scripps Clinic and Research Foundation, priority 1987, dated 1992)", "origin": "cited, not measured here", "system": "acute arterial thrombosis", "details": "used alone or in combination"}
{"substance": "heparin", "values": [{"measurement": "Response of acute complex arterial thrombosis (in words)", "result": "unresponsive"}]}
